In patent US12091411B2, “IRAK degraders and uses thereof” (Kymera Therapeutics, Inc., priority 2022, dated 2024):
Where two headings read alike, the source gives them in different places.

Biological target: T1, IRAK4 (Homo sapiens, UniProt Q9NWZ3)
T1 construct: Degradation of IRAK4 in OCI-LY10 was quantitatively measured using Meso Scale Discovery technology; endogenous in cells; host or cells: OCI-LY10
T1 sequence (Q9NWZ3 1-460): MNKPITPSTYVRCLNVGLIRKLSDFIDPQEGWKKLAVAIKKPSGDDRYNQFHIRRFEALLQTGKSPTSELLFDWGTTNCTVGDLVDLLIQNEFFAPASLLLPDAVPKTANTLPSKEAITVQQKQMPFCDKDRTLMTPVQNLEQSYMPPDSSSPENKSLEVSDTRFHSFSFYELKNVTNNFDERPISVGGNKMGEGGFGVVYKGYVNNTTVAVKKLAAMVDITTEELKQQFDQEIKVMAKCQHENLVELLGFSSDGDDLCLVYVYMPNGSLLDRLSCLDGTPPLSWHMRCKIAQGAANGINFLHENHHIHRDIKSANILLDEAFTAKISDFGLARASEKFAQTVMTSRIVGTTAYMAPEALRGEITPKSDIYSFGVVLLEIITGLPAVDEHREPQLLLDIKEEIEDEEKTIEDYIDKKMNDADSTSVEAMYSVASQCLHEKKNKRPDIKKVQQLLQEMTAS
Assay: IRAK4 MSD Degradation in OCI-LY10
Format: cell-based
Conditions: OCI-LY10 cells, MSD
Procedure: Degradation of IRAK4 in OCI-LY10 was quantitatively measured using Meso Scale Discovery technology. […] Compounds were then added to the assay plates with a final top concentration of 1 to 10 μM in a 1:3 dilution series with total of 8 doses. The assay plates were then incubated for 4 to 24 hours at 37° C. under 5% CO2. […] To prepare MSD assay plates (Meso Scale Discovery Catalog number L15XA-3), the plates were coated with 2 μg/mL capture antibody (mouse Anti-IRAK4 antibody [2H9], ab119942) in PBS, at 40 μL/well. […] Cell lysates were then added to MSD assay plates and the plates were incubated at room temperature for 1 hour. The plates were then washed 3 times with 150 μL/well TBST buffer and 25 μL/well primary detection antibody (rabbit Anti-IRAK4 antibody [Y279], from Abcam. Catalog number ab32511, 1 μg/mL). The assay plates were then incubated at room temperature for 1 hour, washed 3 times with 150 μL/well TBST buffer and 25 μL/well secondary detection antibody, SULFO-TAG anti-rabbit antibody were added (anti-rabbit antibody from Meso Scale Discovery, Catalog number R32AB-1, 1 μg/mL). The assay plates were then incubated at room temperature for 1 hour, washed 3 times with 150 μL/well TBST buffer, and 150 μL/well MSD reading buffer (Meso Scale Discovery catalog number R92TC-2) was added. The plates were then analyzed by a MSD reader (Meso Scale Discovery, Model Quick Plex SQ 120). The data was then analyzed by software Prism 7.0 from GraphPad and the dose-depended IRAK4 degradation were fit using a three-parameter logistic equation to calculate DC50.
The letter codes for IRAK4 DC50 include: A (<0.01 μM); B (0.01 to <0.1 μM); C (0.1 to 0.2 μM); and D (>0.2 μM or not tested).

[1] = 4 hrs incubation, read-out: IRAK4 degradation in OCI-LY10 at 4 hrs: DC50
[2] = 24 hrs incubation, read-out: IRAK4 degradation in OCI-LY10 at 24 hrs: DC50

SMILES	DC50 [1]	DC50 [2]
Cn1c(=O)n(C2CCC(=O)NC2=O)c2cccc(C#CCN3CCN(C[C@H]4CC[C@H](n5cc(NC(=O)c6cnn7ccc(N8CCOC9(CC9)C8)nc67)c(C(F)F)n5)CC4)CC3)c21 (some centres unmarked) [I-286]	> 0.2 µM	< 0.01 µM
CN(C[C@H]1CC[C@H](n2cc(NC(=O)c3cnn4cccnc34)c(C(F)F)n2)CC1)C1CCN(c2cccc3c2n(C)c(=O)n3C2CCC(=O)NC2=O)CC1(F)F (some centres unmarked) [I-376]	> 0.2 µM	> 0.2 µM
COc1cc2nn([C@H]3CC[C@H](CN4CCC5(CC4)CCN(c4cccc6c(N7CCC(=O)NC7=O)cccc46)CC5)CC3)cc2cc1NC(=O)c1cncc(C#N)c1 [I-93]	0.01 to 0.1 µM	0.01 to 0.1 µM
Cc1cccc(C(=O)Nc2cc3cn([C@H]4CC[C@H](CN5CC[C@@H](c6cccc7c6n(C)c(=O)n7C6CCC(=O)NC6=O)[C@H](F)C5)CC4)nc3c(=O)n2C)n1 (some centres unmarked) [I-768]	> 0.2 µM	> 0.2 µM
Cn1c(=O)n(C2CCC(=O)NC2=O)c2ccc(C3CCN(C[C@H]4CC[C@H](n5cc6cc(NC(=O)c7cccc(C(F)(F)F)n7)c(C#N)cc6n5)CC4)CC3(F)F)cc21 (some centres unmarked) [I-568]	> 0.2 µM	> 0.2 µM
O=C1CCN(c2cccc(C#CCN3CCN(C[C@H]4CC[C@H](n5cc(NC(=O)c6cnn7ccc(N8C[C@H]9C[C@@H]8CO9)nc67)c(C(F)F)n5)CC4)CC3)c2)C(=O)N1 [I-123]	> 0.2 µM	> 0.2 µM
Cn1c(=O)n(C2CCC(=O)NC2=O)c2cccc(C#CCN3CCN(C[C@H]4CC[C@H](n5cc(NC(=O)c6cnn7ccc(N8CCC9(CC8)COC9)nc67)c(C(F)F)n5)CC4)CC3)c21 (some centres unmarked) [I-296]	0.01 to 0.1 µM	> 0.2 µM
CN(C[C@H]1CC[C@H](n2cc(NC(=O)c3cnn4ccc(N5CC6(CC6)C5)nc34)c(C(F)F)n2)CC1)C1CCN(c2cccc3c2n(C)c(=O)n3C2CCC(=O)NC2=O)CC1 (some centres unmarked) [I-274]	> 0.2 µM	< 0.01 µM
Cn1c(=O)n(C2CCC(=O)NC2=O)c2cccc(N3CCN(CC4CCN(C[C@H]5CC[C@H](n6cc(NC(=O)c7cnn8ccc(N9C[C@@H]%10C[C@H]9CO%10)nc78)c(C(F)F)n6)CC5)CC4)CC3)c21 (some centres unmarked) [I-161]	< 0.01 µM	> 0.2 µM
Cn1c(=O)n(C2CCC(=O)NC2=O)c2cccc(C#CCN3CCN(C[C@H]4CC[C@H](n5cc(NC(=O)c6cnn7ccc(N8CCOC9(CCC9)C8)nc67)c(C(F)F)n5)CC4)CC3)c21 (some centres unmarked) [I-287]	> 0.2 µM	< 0.01 µM
Cn1c(=O)n(C2CCC(=O)NC2=O)c2cccc(C#CCOC3CCN(C[C@H]4CC[C@H](n5cc(NC(=O)c6cncc(C#N)c6)c(C(F)F)n5)CC4)CC3)c21 (some centres unmarked) [I-264]	> 0.2 µM	> 0.2 µM
CN(C[C@H]1CC[C@H](n2cc(NC(=O)c3cnn4ccc(C5COC5)nc34)c(C(F)F)n2)CC1)C1CCN(c2cccc3c2n(C)c(=O)n3C2CCC(=O)NC2=O)CC1 (some centres unmarked) [I-361]	> 0.2 µM	> 0.2 µM
Cn1c(=O)n(C2CCC(=O)NC2=O)c2cccc(C[C@H]3CN(C[C@H]4CC[C@H](n5cc(NC(=O)c6cnn7cccnc67)c(C(F)F)n5)CC4)CCO3)c21 (some centres unmarked) [I-381]	> 0.2 µM	> 0.2 µM
Cn1c(=O)n(C2CCC(=O)NC2=O)c2cccc(N3CC(CO[C@@H]4CCN(C[C@H]5CC[C@H](n6cc(NC(=O)c7cnn8ccc(N9C[C@H]%10CC9CO%10)nc78)c(C(F)F)n6)CC5)C[C@@H]4F)C3)c21 (some centres unmarked) [I-585]	> 0.2 µM	< 0.01 µM
Cn1c(=O)n(C2CCC(=O)NC2=O)c2cccc(C3CCN(C[C@H]4CC[C@H](n5cc6cc(NC(=O)c7cccc(C(F)(F)F)n7)c(C#N)cc6n5)CC4)CC3F)c21 (some centres unmarked) [I-548]	> 0.2 µM	< 0.01 µM
CN(C[C@H]1CC[C@H](n2cc(CC(=O)c3cnn4ccc(N5CCC(C)(C)CC5)nc34)c(C(F)F)n2)CC1)C1CCN(c2cccc3c2n(C)c(=O)n3C2CCC(=O)NC2=O)CC1 (some centres unmarked) [I-270]	> 0.2 µM	0.01 to 0.1 µM

SMILES	DC50 [1]	DC50 [2]
Cn1c(=O)n(C2CCC(=O)NC2=O)c2cccc(C3CCN(CC4COC5(C4)CN(C[C@H]4CC[C@H](n6cc(NC(=O)c7cnn8ccc(N9C[C@H]%10C[C@@H]9CO%10)nc78)c(C(F)F)n6)CC4)C5)CC3)c21 (some centres unmarked) [I-664]	> 0.2 µM	> 0.2 µM
O=C1CCN(c2cncc3c(C#CCO[C@H]4CCN(C[C@H]5CC[C@H](n6cc(NC(=O)c7cnn8ccc(N9C[C@H]%10C[C@@H]9CO%10)nc78)c(C(F)F)n6)CC5)C[C@H]4F)cccc23)C(=O)N1 [I-46]	< 0.01 µM	> 0.2 µM
C[C@H]1CN(c2ccn3ncc(C(=O)Nc4cn([C@H]5CC[C@H](CN6CCN(CC#Cc7cccc8c7n(C)c(=O)n8C7CCC(=O)NC7=O)CC6)CC5)nc4C(F)F)c3n2)C[C@H](C)O1 (some centres unmarked) [I-430]	> 0.2 µM	< 0.01 µM
COc1ccn2ncc(C(=O)Nc3cn([C@H]4CC[C@H](CN5CCN(CC#Cc6cccc7c6n(C)c(=O)n7C6CCC(=O)NC6=O)CC5)CC4)nc3C(F)F)c2n1 (some centres unmarked) [I-99]	0.01 to 0.1 µM	> 0.2 µM
Cn1c(=O)n(C2CCC(=O)NC2=O)c2cccc(C#CCN3CCN(C[C@H]4CC[C@H](n5cc(NC(=O)c6cnn7ccc(N8CCC8)nc67)c(C(C)(C)O)n5)CC4)CC3)c21 (some centres unmarked) [I-285]	> 0.2 µM	> 0.2 µM
C[C@H]1CN(c2ccn3ncc(C(=O)Nc4cn([C@H]5CC[C@H](CN6CCN(CC#Cc7cccc8c7n(C)c(=O)n8C7CCC(=O)NC7=O)CC6)CC5)nc4C(F)F)c3n2)CCO1 (some centres unmarked) [I-405]	> 0.2 µM	> 0.2 µM
COc1nn([C@H]2CC[C@H](CN3CCN(CC#Cc4cccc5c4n(C)c(=O)n5C4CCC(=O)NC4=O)CC3)CC2)cc1NC(=O)c1cnn2ccc(N3C[C@H]4C[C@@H]3CO4)nc12 (some centres unmarked) [I-121]	0.1 to 0.2 µM	> 0.2 µM
Cn1c(=O)n(C2CCC(=O)NC2=O)c2ccc(N3CC(CN4CCN(C[C@H]5CC[C@H](n6cc(NC(=O)c7cnn8ccc(N9C[C@H]%10C[C@@H]9CO%10)nc78)c(C(F)F)n6)CC5)CC4)C3)c(F)c21 (some centres unmarked) [I-724]	> 0.2 µM	< 0.01 µM
Cn1c(=O)n(C2CCC(=O)NC2=O)c2cccc(C3CCN(C[C@H]4CC[C@H](n5cc6cc(NC(=O)c7cccc(C(F)F)n7)c(C(C)(C)O)cc6n5)CC4)CC3(F)F)c21 (some centres unmarked) [I-619]	> 0.2 µM	< 0.01 µM
CN(C[C@H]1CC[C@H](n2cc(NC(=O)c3cnn4ccc(N5CC(C)(C)C5)nc34)c(C(F)F)n2)CC1)C1CCN(c2cccc3c2n(C)c(=O)n3C2CCC(=O)NC2=O)CC1(F)F (some centres unmarked) [I-505]	> 0.2 µM	> 0.2 µM
Cn1c(=O)n(C2CCC(=O)NC2=O)c2cccc(N3CCC4(CCN(C[C@H]5CC[C@H](n6cc7cc(NC(=O)c8cncc(C#N)c8)c(F)cc7n6)CC5)CC4)CC3)c21 (some centres unmarked) [I-186]	> 0.2 µM	> 0.2 µM
COc1cc2nn([C@H]3CC[C@H](CN4CCC(c5cccc6c(N7CCC(=O)NC7=O)cncc56)C(F)(F)C4)CC3)cc2cc1NC(=O)c1cccc(C(F)(F)F)n1 (some centres unmarked) [I-467]	> 0.2 µM	> 0.2 µM
COc1cc2nn([C@H]3CC[C@H](CN4CCC5(CC4)CCN(c4cccc6c4n(C)c(=O)n6C4CCC(=O)NC4=O)CC5)CC3)cc2cc1NC(=O)c1cncc(C(C)(C)C#N)c1 (some centres unmarked) [I-185]	> 0.2 µM	> 0.2 µM
CC(C)(O)c1cc2nn([C@H]3CC[C@H](CN4CCC5(CC4)CC(CCNc4cccc6c4C(=O)N(C4CCC(=O)NC4=O)C6=O)C5)CC3)cc2cc1NC(=O)c1cccc(C(F)(F)F)n1 (some centres unmarked) [I-130]	> 0.2 µM	0.01 to 0.1 µM
Cn1c(=O)n(C2CCC(=O)NC2=O)c2cccc(C#CCc3ccc(CN4CCC(n5cc(NC(=O)c6cnn7ccc(N8CC9C[C@@H]8CO9)nc67)c(C(F)F)n5)CC4)cc3)c21 (some centres unmarked) [I-372]	> 0.2 µM	> 0.2 µM
